Patent publication US10131652B2, “Pyrimidinyloxy benzene derivatives as herbicides” (E. I. DU PONT DE NEMOURS AND COMPANY, priority 2014, dated 2018)
Read-outs that look alike come from different tables or passages of the source.

What was measured:
Type in all cases: in vivo
[1] = test system: morningglory (Ipomoea coccinea); assay: Test D pre-/postemergence plant response; conditions: Ipomoea, pre-emergence, Preemergence, scale 0 to 100 (0 no effect, 100 complete control), read-out: Plant response rating, Morningglory
Method in brief: (§1)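 Pre-/post-emergence greenhouse test. Pre: seeded loam+sand, sprayed same day. Post: 1–4 leaf plants (2–18 cm), peat/vermiculite mix. Formulation: non-phytotoxic solvent + surfactant. Scored visually d13–15, 0–100 vs control.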

[2] = test system: pigweed (Amaranthus retroflexus); assay: Test D pre-/postemergence plant response; conditions: Amaranthus retroflexus; for pest or weed control at 31 g/ha: 31 g ai/ha; for pest or weed control at 62 g/ha: 62 g ai/ha; for pest or weed control at 125 g/ha: 125 g ai/ha; for pest or weed control at 250 g/ha: 250 g ai/ha
Method in brief: as §1

[3] = test system: oilseed rape (Brassica napus); assay: Test D pre-/postemergence plant response; conditions: Brassica napus; for plant injury at 31 g/ha: 31 g ai/ha; for plant injury at 62 g/ha: 62 g ai/ha; for plant injury at 125 g/ha: 125 g ai/ha; for plant injury at 250 g/ha: 250 g ai/ha
Method in brief: as §1

[4] = test system: barnyardgrass (Echinochloa crus-galli); assay: Test D pre-/postemergence plant response; conditions: Echinochloa crus-galli; for pest or weed control at 31 g/ha: 31 g ai/ha, scale 0 to 100 (0 no effect, 100 complete control); for pest or weed control at 62 g/ha: 62 g ai/ha; for pest or weed control at 125 g/ha: 125 g ai/ha; for pest or weed control at 250 g/ha: 250 g ai/ha
Method in brief: as §1

[5] = test system: yellow nutsedge (Cyperus esculentus); assay: Test D pre-/postemergence plant response; conditions: Cyperus; for pest or weed control at 31 g/ha: 31 g ai/ha; for pest or weed control at 62 g/ha: 62 g ai/ha; for pest or weed control at 125 g/ha: 125 g ai/ha; for pest or weed control at 250 g/ha: 250 g ai/ha
Method in brief: as §1

soybean (Glycine max) = assay: Test D pre-/postemergence plant response; conditions: Glycine max; for plant injury at 31 g/ha: 31 g ai/ha; for plant injury at 62 g/ha: 62 g ai/ha; for plant injury at 125 g/ha: 125 g ai/ha; for plant injury at 250 g/ha: 250 g ai/ha
Method in brief: as §1

[6] = test system: chickweed (common chickweed, Stellaria media); assay: Test D postemergence plant response; conditions: Stellaria media, post-emergence
Text: At the same time, plants selected from these crop and weed species and also kochia (Kochia scoparia), wild oat (Avena fatua), and chickweed (common chickweed, Stellaria media) were planted in pots containing Redi-Earth® planting medium (Scotts Company, 14111 Scottslawn Road, Marysville, Ohio 43041) comprising spaghnum peat moss, vermiculite, wetting agent and starter nutrients and treated with postemergence applications of test chemicals formulated in the same manner. Plants ranged in height from 2 to 18 cm (1- to 4-leaf stage) for postemergence treatments. Treated plants and controls were maintained in a greenhouse for 13 to 15 days, after which time all species were compared to controls and visually evaluated. Plant response ratings, summarized in Table D, are based on a scale of 0 to 100 where 0 is no effect and 100 is complete control. A dash (-) response means no test result.

[7] = post-emergence, Postemergence, scale 0 to 100, 0 no effect, 100 complete control, read-out: Plant response rating, Pigweed
[8] = pre-emergence, Preemergence, read-out: Plant response rating (scale 0 to 100), Pigweed
[9] = pre-emergence, Preemergence, scale 0 to 100 (0 no effect, 100 complete control), read-out: Plant response rating, Pigweed
[10] = post-emergence, Postemergence, scale 0 to 100, 0 no effect, 100 complete control, read-out: Plant response rating, Oilseed Rape
[11] = pre-emergence, Preemergence, read-out: Plant response rating (scale 0 to 100), Oilseed Rape
[12] = pre-emergence, Preemergence, scale 0 to 100 (0 no effect, 100 complete control), read-out: Plant response rating, Oilseed Rape
[13] = post-emergence, Postemergence, scale 0 to 100, 0 no effect, 100 complete control, read-out: Plant response rating, Barnyardgrass
[14] = pre-emergence, Preemergence, read-out: Plant response rating (scale 0 to 100), Barnyardgrass
[15] = post-emergence, Postemergence, scale 0 to 100, 0 no effect, 100 complete control, read-out: Plant response rating, Nutsedge, Yellow
[16] = pre-emergence, Preemergence, read-out: Plant response rating (scale 0 to 100), Nutsedge, Yellow
[17] = pre-emergence, Preemergence, scale 0 to 100 (0 no effect, 100 complete control), read-out: Plant response rating, Nutsedge, Yellow
[18] = post-emergence, Postemergence, scale 0 to 100, 0 no effect, 100 complete control, read-out: Plant response rating, Soybean
[19] = pre-emergence, Preemergence, read-out: Plant response rating (scale 0 to 100), Soybean
[20] = pre-emergence, Preemergence, scale 0 to 100 (0 no effect, 100 complete control), read-out: Plant response rating, Soybean

FC(F)c1cc(-c2ccccc2Oc2ncc(Br)cn2)no1 [Compound 62, 5-bromo-2-[2-[5-(difluoromethyl)-3-isoxazolyl]phenoxy]pyrimidine]
pest or weed control at 31 g/ha ([1]; 31 g ai/ha): 25% | pest or weed control at 62 g/ha ([1]; 62 g ai/ha): 55% | pest or weed control at 31 g/ha ([2]; post-emergence, Postemergence, scale 0 to 100 (0 no effect, 100 complete control), read-out: Pigweed plant response rating): 98% | pest or weed control at 62 g/ha [2, 7]: 100% | pest or weed control at 125 g/ha [2, 7]: 100% | pest or weed control at 250 g/ha [2, 7]: 100% | pest or weed control at 125 g/ha [2, 8]: 100% | pest or weed control at 250 g/ha [2, 8]: 100% | pest or weed control at 31 g/ha [2, 9]: 100% | pest or weed control at 62 g/ha [2, 9]: 100% | plant injury at 31 g/ha ([3]; post-emergence, Postemergence, scale 0 to 100 (0 no effect, 100 complete control), read-out: Oilseed Rape plant response rating): 80% | plant injury at 62 g/ha [3, 10]: 90% | plant injury at 125 g/ha [3, 10]: 98% | plant injury at 250 g/ha [3, 10]: 100% | plant injury at 125 g/ha [3, 11]: 100% | plant injury at 250 g/ha [3, 11]: 100% | plant injury at 31 g/ha [3, 12]: 100% | plant injury at 62 g/ha [3, 12]: 98% | pest or weed control at 31 g/ha ([4]; post-emergence, Postemergence, read-out: Barnyardgrass plant response rating): 50% | pest or weed control at 62 g/ha [4, 13]: 35% | pest or weed control at 125 g/ha [4, 13]: 30% | pest or weed control at 250 g/ha [4, 13]: 95% | pest or weed control at 62 g/ha [4, 14]: 98% | pest or weed control at 125 g/ha [4, 14]: 100% | pest or weed control at 250 g/ha [4, 14]: 100% | pest or weed control at 31 g/ha ([4]; pre-emergence, Preemergence, read-out: Plant response rating, Barnyardgrass): 50% | pest or weed control at 31 g/ha ([5]; post-emergence, Postemergence, scale 0 to 100 (0 no effect, 100 complete control), read-out: Nutsedge, Yellow plant response rating): 5% | pest or weed control at 62 g/ha [5, 15]: 5% | pest or weed control at 125 g/ha [5, 15]: 5% | pest or weed control at 250 g/ha [5, 15]: 10% | pest or weed control at 125 g/ha [5, 16]: 10% | pest or weed control at 250 g/ha [5, 16]: 60% | pest or weed control at 31 g/ha [5, 17]: 0% | pest or weed control at 62 g/ha [5, 17]: 5% | plant injury at 31 g/ha (soybean (Glycine max); post-emergence, Postemergence, scale 0 to 100 (0 no effect, 100 complete control), read-out: Soybean plant response rating): 80% | plant injury at 62 g/ha (soybean (Glycine max); [18]): 95% | plant injury at 125 g/ha (soybean (Glycine max); [18]): 98% | plant injury at 250 g/ha (soybean (Glycine max); [18]): 98% | plant injury at 125 g/ha (soybean (Glycine max); [19]): 85% | plant injury at 250 g/ha (soybean (Glycine max); [19]): 95% | plant injury at 31 g/ha (soybean (Glycine max); [20]): 60% | plant injury at 62 g/ha (soybean (Glycine max); [20]): 70% | pest or weed control at 31 g/ha ([6]; 31 g ai/ha, scale 0 to 100 (0 no effect, 100 complete control), read-out: Chickweed plant response rating): 70% | pest or weed control at 62 g/ha ([6]; 62 g ai/ha, scale 0 to 100, 0 no effect, 100 complete control, read-out: Plant response rating, Chickweed): 95% | pest or weed control at 125 g/ha ([6]; 125 g ai/ha, scale 0 to 100, 0 no effect, 100 complete control, read-out: Plant response rating, Chickweed): 98% | pest or weed control at 250 g/ha ([6]; 250 g ai/ha, scale 0 to 100, 0 no effect, 100 complete control, read-out: Plant response rating, Chickweed): 100%
